Assay results reported in ChEMBL document CHEMBL1201862, “PubChem BioAssay data set” (2004).
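Method: 48-hour compound exposure of cells in 96-well plates, five concentrations, linear interpolation of endpoints. Abbreviation: GI50, concentration required for 50% inhibition of growth.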 The source made the active and inactive calls. Rule as the data show it: active = GI50 up to about 1.1 µM and inactive = higher.

Key:
Assay in all cases: DTP human tumour cell line panel, 48 h
PC-3 = test system: PC-3
SF-295 = test system: SF-295
SK-MEL-5 = test system: SK-MEL-5
M14 = test system: M14
OVCAR-8 = test system: OVCAR-8
TK-10 = test system: TK-10
OVCAR-5 = test system: OVCAR-5
MCF7 = test system: MCF7
OVCAR-4 = test system: OVCAR-4
MOLT-4 = test system: MOLT-4
SF-268 = test system: SF-268
SW-620 = test system: SW-620
COLO 205 = test system: COLO 205
MDA-N = test system: MDA-N
BT-549 = test system: BT-549
Hs-578T = test system: Hs-578T
K562 = test system: K562
NCI-H522 = test system: NCI-H522
DU-145 = test system: DU-145
HCT-116 = test system: HCT-116

Measured: GI50

COC(=O)C1C(C(=O)OC)N(Cc2ccccc2)C(=O)N1Cc1ccccc1 (stereo not given)
inactive: PC-3 > 100 µM | SF-295 39.1 µM | SK-MEL-5 58.5 µM | M14 > 100 µM | OVCAR-8 > 100 µM | TK-10 > 100 µM | OVCAR-5 > 100 µM | MCF7 7.5 µM | OVCAR-4 > 100 µM | MOLT-4 22.8 µM | SF-268 > 100 µM | SW-620 > 100 µM | COLO 205 > 100 µM | MDA-N > 100 µM | BT-549 > 100 µM | Hs-578T > 100 µM | K562 45.6 µM | NCI-H522 37.5 µM | DU-145 > 100 µM | HCT-116 > 100 µM
